Tests used:
Serratia marcescens = assay: Oral antimicrobial activity in vivo in the mouse (curative dose CD50), Serratia marcescens infection; parameters: species or system Maus; conditions: peroral dose at which 50% of tested mice survive, read-out: CD50, p.o.
Text: (§1) Die orale antimikrobielle Wirksamkeit der erwähnten Produkte kann anhand von in-vivo-Versuchen an der Maus nachgewiesen werden. Im nachstehenden bedeutet die kurative Dosis (CD50, p.o., mg/kg) diejenige perorale Dosis, bei der 50% der getesteten Mäuse überleben.
(§2) Ergebnis (CD50, p.o., mg/kg)

Escherichia coli = assay: Oral antimicrobial activity in vivo in the mouse (curative dose CD50), Escherichia coli infection; parameters: species or system Maus; conditions: peroral dose at which 50% of tested mice survive, read-out: CD50, p.o.
Text: as §1, §2

Streptococcus pyogenes = assay: Oral antimicrobial activity in vivo in the mouse (curative dose CD50), Streptococcus pyogenes infection; parameters: species or system Maus; conditions: peroral dose at which 50% of tested mice survive, read-out: CD50, p.o.
Text: as §1, §2

in vivo = conditions: mouse, po
Klebsiella pneumoniae = assay: Oral antimicrobial activity in vivo in the mouse (curative dose CD50), Klebsiella pneumoniae infection; parameters: species or system Maus; conditions: peroral dose at which 50% of tested mice survive, read-out: CD50, p.o.
Text: as §1, §2

Row | SMILES | ED50 (Serratia marcescens) | ED50 (Escherichia coli) | ED50 (Streptococcus pyogenes) | LD50 at 24 h (in vivo) | ED50 (Klebsiella pneumoniae)
1 | CC1=C(C(=O)O)N2C(=O)[C@@H](NC(=O)[C@H](N)c3ccccc3)[C@H]2SC1 [Cephalexin, reference compound] | > 50 mg/kg | 3.2 mg/kg | 1.8 mg/kg | – | –
2 | CO/N=C(\C(=O)N[C@@H]1C(=O)N2C(C(=O)OCOC(=O)C(C)(C)C)=C(CSc3nc(C(=O)OC)nn3C)CS[C@H]12)c1csc(N)n1 [Produkt A] | 1.5 mg/kg | 0.07 mg/kg | 0.72 mg/kg | > 5000 mg/kg | 3.7 mg/kg
3 | CCOC(=O)c1nc(SCC2=C(C(=O)OCOC(=O)C(C)(C)C)N3C(=O)[C@@H](NC(=O)/C(=N\OC)c4csc(N)n4)[C@H]3SC2)n(C)n1 [Produkt B] | 0.8 mg/kg | – | 2.1 mg/kg | > 5000 mg/kg | –
4 | CCn1nc(C(=O)OC)nc1SCC1=C(C(=O)OCOC(=O)C(C)(C)C)N2C(=O)[C@@H](NC(=O)/C(=N\OC)c3csc(N)n3)[C@H]2SC1 [Produkt C, Methylen-(6R,7R)-7-[(Z)-2-(2-Amino-4-thiazolyl)-2-(methoxyimino)acetamido]-3-[[[2-äthyl-5-(methoxycarbonyl)-2H-1,2,4-triazol-3-yl]thio]methyl]-8-oxo-5-thia-2-azabicyclo[4.2.0]oct-2-en-2-carboxylat-pivalat] | 2.54 mg/kg | – | 0.53 mg/kg | – | –
5 | CO/N=C(\C(=O)N[C@@H]1C(=O)N2C(C(=O)OCOC(=O)C(C)(C)C)=C(CSc3nc(C(=O)OC)nn3CC(=O)OCOC(=O)C(C)(C)C)CS[C@H]12)c1csc(N)n1 [Produkt D, Methylen-(6R,7R)-7-[(Z)-2-(2-Amino-4-thiazolyl)-2-(methoxyimino)-acetamido]-3-[[[5-(methoxycarbonyl)-2-[[[(pivaloyloxy)methoxy]-carbonyl]methyl]-2H-1,2,4-triazol-3-yl]thio]-methyl]-8-oxo-5-thia-1-azabicyclo[4.2.0]oct-2-en-2-carboxylat-pivalat] | > 6 mg/kg | – | 8.8 mg/kg | > 5000 mg/kg | 12.5 mg/kg
6 | CCCn1nc(C(=O)OC)nc1SCC1=C(C(=O)OCOC(=O)C(C)(C)C)N2C(=O)[C@@H](NC(=O)/C(=N\OC)c3csc(N)n3)[C@H]2SC1 [Produkt E] | 1.8 mg/kg | 0.04 mg/kg | 0.89 mg/kg | > 5000 mg/kg | 2.5 mg/kg
7 | CO/N=C(\C(=O)N[C@@H]1C(=O)N2C(C(=O)OCOC(=O)C(C)(C)C)=C(CSc3nc(C(=O)OC)nn3-c3ccccc3)CS[C@H]12)c1csc(N)n1 [Produkt F] | 5.8 mg/kg | – | 1.5 mg/kg | > 5000 mg/kg | > 12 mg/kg
